US12558428B2, “Heterobifunctional compounds and their use in treating disease” (Halda Therapeutics OpCo, Inc., priority 2024, dated 2026)
Where two headings read alike, the source gives them in different places.

How the values were obtained:
Format in all cases: cell-based
[1] = test system: T-Rex 293 cells having increased expression of estrogen receptor alpha protein; experiment: Cellular growth inhibition assay, T-Rex 293 cells, (+) doxycycline; settings: 72 hours
Outline: (§1)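 ERα overexpression was switched on by 3 ng/mL doxycycline in a stably transfected T-Rex 293 clone, while uninduced cells served as the comparison line. Proliferation over 72 h of compound treatment was assessed by ATP luminescence, and GI50 values came from four-parameter curves.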

[2] = test system: MCF7 cells (ATCC #HTB-22); experiment: Cellular growth inhibition assay, MCF7 cells purchased from ATCC; settings: Table 8-A, MCF7 cells purchased from ATCC, six days, CellTiter-Glo, read-out: GI50
Outline: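 MCF7 cells in RPMI 1640 with 10% FBS and 0.2 U/ml insulin, seeded at 1,500 cells/well (ATCC) or 225 cells/well (ECACC). Compounds added 24 h later, then 6 days at 37° C. Viability by CellTiter-Glo 2.0 luminescence. GI50 from four-parameter fit.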

[3] = test system: T-Rex 293 cells lacking increased expression of estrogen receptor alpha protein; experiment: Cellular growth inhibition assay, T-Rex 293 cells, (−) doxycycline; settings: 72 hours
Outline: as §1

[4] = T-REx-293, 72 h, T-Rex 293 cells with doxycycline-induced ERα expression, CellTiter-Glo 2.0, read-out: (+) Dox TRex ERa (GI50)
[5] = T-REx-293, 72 h, T-Rex 293 cells without doxycycline, CellTiter-Glo 2.0, read-out: (−) Dox TRex ERa (GI50)

Compound | GI50 ([2]; Homo sapiens, MCF7, 144 h) [nM] | GI50 [2] [nM] | GI50 [1, 4] [nM] | GI50 [3, 5] [nM] | GI50 ([1]; T-REx-293, 72 h, Table 7-A, T-Rex 293 cells with doxycycline (increased ERα expression), CellTiter-Glo, read-out: (+) Dox GI50) [nM] | GI50 ([3]; T-REx-293, 72 h, Table 7-A, T-Rex 293 cells without doxycycline (lacking increased ERα expression), CellTiter-Glo, read-out: (−) Dox GI50) [nM] | GI50 ([1]; Table 7-A, T-Rex 293 cells with doxycycline (increased ERα expression), CellTiter-Glo, read-out: (+) Dox GI50) [nM] | GI50 ([3]; Table 7-A, T-Rex 293 cells without doxycycline (lacking increased ERα expression), CellTiter-Glo, read-out: (−) Dox GI50) [nM]
Cc1sc2c(c1C)C(c1ccc(OCCCCC3CCN(c4ccc(C(=O)c5c(-c6ccc(O)cc6)sc6cc(O)ccc56)cc4)CC3)cc1)=N[C@@H](Cc1ncco1)c1nnc(C)n1-2 [I-21, (S)-(6-hydroxy-2-(4-hydroxyphenyl)benzo[b]thiophen-3-yl)(4-(4-(4-(4-(2,3,9-trimethyl-6-(oxazol-2-ylmethyl)-6H-thieno[3,2-f][1,2,4]triazolo[4,3-a][1,4]diazepin-4-yl)phenoxy)butyl)piperidin-1-yl)phenyl)methanone] | < 50 | – | < 50 | 50 to 500 | – | – | – | –
Cn1cc(-c2cc(C(C)(C)O)ccc2Oc2ccc(N3CC(CC4CCN(c5ccc(C(=O)c6c(-c7ccc(O)cc7)sc7cc(O)ccc67)cc5)CC4)C3)cc2)c2cc[nH]c2c1=O [I-22, 4-(2-(4-(3-((1-(4-(6-hydroxy-2-(4-hydroxyphenyl)benzo[b]thiophene-3-carbonyl)phenyl)piperidin-4-yl)methyl)azetidin-1-yl)phenoxy)-5-(2-hydroxy-propan-2-yl)phenyl)-6-methyl-1,6-dihydro-7H-pyrrolo[2,3-c]pyridin-7-one] | < 50 | – | < 50 | 50 to 500 | – | – | – | –
Cc1sc2c(c1C)C(c1ccc(OCCOCCOc3cc(F)c([C@@H]4c5[nH]c6ccccc6c5C[C@@H](C)N4CC(C)(C)F)c(F)c3)cc1)=N[C@@H](C)c1nnc(C)n1-2 [I-23, (S)-4-(4-(2-(2-(3,5-difluoro-4-((1R,3R)-2-(2-fluoro-2-methylpropyl)-3-methyl-2,3,4,9-tetrahydro-1H-pyrido[3,4-b]indol-1-yl)phenoxy)ethoxy)ethoxy)phenyl)-2,3,6,9-tetramethyl-6H-thieno[3,2-f][1,2,4]triazolo[4,3-a][1,4]diazepine] | 50 to 500 | – | 500 to 2500 | 500 to 2500 | – | – | – | –
Cn1cc(-c2cc(C(C)(C)O)ccc2Oc2ccc(CC3CC4(CCN(CCOc5ccc(C(=O)c6c(-c7ccc(O)cc7)sc7cc(O)ccc67)cc5)CC4)C3)cc2)c2cc[nH]c2c1=O [I-24, 4-(2-(4-((7-(2-(4-(6-hydroxy-2-(4-hydroxyphenyl)benzo[b]thiophene-3-carbonyl)phenoxy)ethyl)-7-azaspiro[3.5]nonan-2-yl)methyl)phenoxy) -5-(2-hydroxypropan-2-yl)phenyl)-6-methyl-1,6-dihydro-7H-pyrrolo[2,3-c]pyridin-7-one] | < 50 | – | 50 to 500 | 50 to 500 | – | – | – | –
Cc1sc2c(c1C)C(c1ccc(OCCOCCOCCOc3cc(F)c([C@@H]4c5[nH]c6ccccc6c5C[C@@H](C)N4CC(C)(C)F)c(F)c3)cc1)=N[C@@H](C)c1nnc(C)n1-2 [I-25, (S)-4-(4-(2-(2-(2-(3,5-difluoro-4-((1R,3R)-2-(2-fluoro-2-methylpropyl)-3-methyl-2,3,4,9-tetrahydro-1H-pyrido[3,4-b]indol-1-yl)phenoxy)ethoxy)ethoxy)ethoxy)phenyl)-2,3,6,9-tetramethyl-6H-thieno[3,2-f][1,2,4]triazolo[4,3-a][1,4]diazepine] | < 50 | – | 50 to 500 | 50 to 500 | – | – | – | –
Cc1sc2c(c1C)C(c1ccc(N3CCC(CN4CCN(c5ccc([C@@H]6c7ccc8n[nH]cc8c7C[C@@H](C)N6CC(F)(F)F)nc5)CC4)CC3)cc1)=N[C@@H](C)c1nnc(C)n1-2 [I-27, (S)-2,3,6,9-tetramethyl-4-(4-(4-((4-(6-((6S,8R)-8-methyl-7-(2,2,2-trifluoroethyl)-6,7,8,9-tetrahydro-2H-pyrazolo[4,3-f]isoquinolin-6-yl)pyridin-3-yl)piperazin-1-yl)methyl)piperidin-1-yl)phenyl)-6H-thieno[3,2-f][1,2,4]triazolo[4,3-a][1,4]diazepine] | 50 to 500 | – | < 50 | 500 to 2500 | – | – | – | –
Cc1sc2c(c1C)C(c1ccc(Cl)cc1)=N[C@@H](CC(=O)NCCCCOCCOc1ccc(C(=O)c3c(-c4ccc(Br)cc4)sc4cc(O)ccc34)cc1)c1nnc(C)n1-2 [I-28, (S)—N-(4-(2-(4-(2-(4-bromophenyl)-6-hydroxybenzo[b]thiophene-3-carbonyl)phenoxy)ethoxy)butyl)-2-(4-(4-chlorophenyl)-2,3,9-trimethyl-6H-thieno[3,2-f][1,2,4]triazolo[4,3-a][1,4]diazepin-6-yl)acetamide] | 50 to 500 | – | 50 to 500 | 500 to 2500 | – | – | – | –
Cc1sc2c(c1C)C(c1ccc(C#CC3CC4(CCN(CCOc5ccc(C(=O)c6c(-c7ccc(O)cc7)sc7cc(O)ccc67)cc5)CC4)C3)cc1)=N[C@@H](C)c1nnc(C)n1-2 [I-29, (S)-(6-hydroxy-2-(4-hydroxyphenyl)benzo[b]thiophen-3-yl)(4-(2-(2-((4-(2,3,6,9-tetramethyl-6H-thieno[3,2-f][1,2,4]triazolo[4,3-a][1,4]diazepin-4-yl)phenyl)ethynyl)-7-azaspiro[3.5]nonan-7-yl)ethoxy)phenyl)methanone] | < 50 | – | < 50 | < 50 | – | – | – | –
Cc1sc2c(c1C)C(c1ccc(CC3CC4(CCN(CCOc5ccc(C(=O)c6c(-c7ccc(O)cc7)sc7cc(O)ccc67)cc5)CC4)C3)cc1)=N[C@@H](Cc1ncco1)c1nnc(C)n1-2 [I-30, (S)-(6-hydroxy-2-(4-hydroxyphenyl)benzo[b]thiophen-3-yl)(4-(2-(2-(4-(2,3,9-trimethyl-6-(oxazol-2-ylmethyl)-6H-thieno[3,2-f][1,2,4]triazolo[4,3-a][1,4]diazepin-4-yl)benzyl)-7-azaspiro[3.5]nonan-7-yl)ethoxy)phenyl)methanone] | < 50 | – | < 50 | < 50 | – | – | – | –

Further lines, with some results ahead:

GI50 ([2]; Homo sapiens, MCF7, 144 h) [nM] | GI50 [2] [nM] | Compound | GI50 [1, 4] [nM] | GI50 [3, 5] [nM] | GI50 ([1]; T-REx-293, 72 h, Table 7-A, T-Rex 293 cells with doxycycline (increased ERα expression), CellTiter-Glo, read-out: (+) Dox GI50) [nM] | GI50 ([3]; T-REx-293, 72 h, Table 7-A, T-Rex 293 cells without doxycycline (lacking increased ERα expression), CellTiter-Glo, read-out: (−) Dox GI50) [nM] | GI50 ([1]; Table 7-A, T-Rex 293 cells with doxycycline (increased ERα expression), CellTiter-Glo, read-out: (+) Dox GI50) [nM] | GI50 ([3]; Table 7-A, T-Rex 293 cells without doxycycline (lacking increased ERα expression), CellTiter-Glo, read-out: (−) Dox GI50) [nM]
< 50 | – | Cn1cc(-c2cc(C(C)(C)O)ccc2Oc2ccc(C#CC3CC4(CCN(CCOc5ccc(C(=O)c6c(-c7ccc(O)cc7)sc7cc(O)ccc67)cc5)CC4)C3)cc2)c2cc[nH]c2c1=O [I-31, 4-(2-(4-((7-(2-(4-(6-hydroxy-2-(4-hydroxyphenyl)benzo [b]thiophene-3-carbonyl)phenoxy)ethyl)-7-azaspiro[3.5]nonan-2-yl)ethynyl)phenoxy)-5-(2-hydroxypropan-2-yl)phenyl)-6-methyl-1,6-dihydro-7H-pyrrolo[2,3-c]pyridin-7-one] | < 50 | 50 to 500 | – | – | – | –
50 to 500 | – | Cc1sc2c(c1C)C(c1ccc(OCCOCCCN3CC[C@H](Oc4ccc(C5=C(c6ccc(Cl)cc6Cl)CCCc6cc(C(=O)O)ccc65)cc4)C3)cc1)=N[C@@H](C)c1nnc(C)n1-2 [I-32, 8-(2,4-dichlorophenyl)-9-(4-(((S)-1-(3-(2-(4-((S)-2,3,6,9-tetramethyl-6H-thieno[3,2-f][1,2,4]triazolo[4,3-a][1,4]diazepin-4-yl)phenoxy)ethoxy)propyl)pyrrolidin-3-yl)oxy)phenyl)-6,7-dihydro-5H-benzo[7]annulene-3-carboxylic acid] | < 50 | 500 to 2500 | – | – | – | –
< 50 | – | Cc1sc2c(c1C)C(c1ccc(OCCOCCOCCCN3CC(Nc4ccc([C@@H]5c6ccc7n[nH]cc7c6C[C@@H](C)N5CC(F)(F)F)nc4)C3)cc1)=N[C@@H](C)c1nnc(C)n1-2 [I-33, 6-((6S,8R)-8-methyl-7-(2,2,2-trifluoroethyl)-6,7,8,9-tetrahydro-2H-pyrazolo[4,3-f]isoquinolin-6-yl)-N-(1-(3-(2-(2-(4-((S)-2,3,6,9-tetramethyl-6H-thieno[3,2-f][1,2,4]triazolo[4,3-a][1,4]diazepin-4-yl)phenoxy)ethoxy)ethoxy)propyl)azetidin-3-yl)pyridin-3-amine] | < 50 | > 2500 | – | – | – | –
50 to 500 | – | CCN(Cc1ccc(CCN2CC[C@@H](OCCOCCOc3ccc(C4=N[C@@H](C)c5nnc(C)n5-c5sc(C)c(C)c54)cc3)C2)cc1)c1cc(OC)ccc1C1CCc2cc(O)ccc2C1 (stereo partly drawn) [I-34a, (R)-6-(2-(ethyl(4-(2-((R)-3-(2-(2-(4-((S)-2,3,6,9-tetramethyl-6H-thieno[3,2-f][1,2,4]triazolo[4,3-a][1,4]diazepin-4-yl)phenoxy)ethoxy)ethoxy)pyrrolidin-1-yl)ethyl)benzyl)amino)-4-methoxyphenyl)-5,6,7,8-tetrahydronaphthalen-2-ol] | – | – | 50 to 500 | 500 to 2500 | – | –
– | 50 to 500 | CCN(Cc1ccc(CCN2CC[C@@H](OCCOCCOc3ccc(C4=N[C@@H](C)c5nnc(C)n5-c5sc(C)c(C)c54)cc3)C2)cc1)c1cc(OC)ccc1C1CCc2cc(O)ccc2C1 (stereo partly drawn) [I-34b, (S)-6-(2-(ethyl(4-(2-((R)-3-(2-(2-(4-((S)-2,3,6,9-tetramethyl-6H-thieno[3,2-f][1,2,4]triazolo[4,3-a][1,4]diazepin-4-yl)phenoxy)ethoxy)ethoxy)pyrrolidin-1-yl)ethyl)benzyl)amino)-4-methoxyphenyl)-5,6,7,8-tetrahydronaphthalen-2-ol] | – | – | – | – | < 50 | 500 to 2500
